Assay type in all cases: in vivo, mouse
Test [1] has as its system DIO mice. Put plainly: Fasting blood glucose, HbA1c, blood insulin, plasma leptin and adiponectin after 5-week administration, DIO mice. The method, then:
The blood glucose level was measured by a glucose analyzer Antisense (HORIBA, Ltd.) promptly after taking blood from an orbit. HbA1c was measured by a glycohemoglobin analyzer HLC-723 GHbV (manufactured by TOSOH Corporation) after preserving blood at −80° C.
After taking blood from an orbit by using a hematocrit tube coated with heparin, blood was centrifuged at 3500 rpm at 4° C. for 15 minutes, and plasma was preserved at −80° C. The plasma concentrations of insulin, leptin and adiponectin were measured by the ELISA method (levis insulin kit (mouse): Shibayagi Co., Ltd., Morinaga Leptin assay kit: Morinaga Institute of Biological Science, Inc., Mouse/rat adiponectin ELISA kit: OTSUKA Pharmaceutical Co., Ltd.).
(±)-baclofen (5 mg/kg/day), SKF97541 (0.3 mg/kg/day) or 3-APPA (5 mg/kg/day) was orally administered to DIO mice for 5 weeks according to the above described method, and then blood was taken from an orbit after 6 hour-fasting and a blood glucose level, an HbA1c value and a blood insulin concentration were measured.
(±)-baclofen (5 mg/kg/day) was orally administered to DIO mice for 5 weeks according to the above described method, and then, blood was taken from an orbit after 6 hour-fasting, and a plasma leptin concentration and a plasma adiponectin concentration were measured. The DIO mice were sacrificed by cervical luxation after the end of the 5-week administration, and then epididymal white adipose tissues and subcutaneous white adipose tissues were surgically removed, and after measuring the weights, they were fixed in 4% formaldehyde. The epididymal white adipose tissues were cut out to prepare a section with a thickness of 8 μm and subjected to Hematoxylin-Eosin stain (H-E stain) and a form (size) of a fat cell was examined by using an image analysis system, Neurolucida (MicroBrightField Japan, Inc.).

Test [2] has as its system DIO mice. Briefly: Rectal temperature, oxygen consumption and motor activity, DIO mice. The method, then:
(±)-baclofen was orally administered to db/db mice and DIO mice for 5 weeks and rectal temperatures were measured 5 weeks after the start of the administration, and oxygen consumptions and motor activity were measured by using a small animal metabolism measuring system (model MK-5000: Muromachi Kikai Co., Ltd.).

The test system of another test is POMC mRNA. Briefly: In situ hybridization, POMC mRNA in hypothalamic arcuate nucleus, DIO mice. The settings on record: (±)-baclofen oral 5 weeks. The method, then: A hypothalamic section with a thickness of 12 μm was prepared from the brain preserved at −80° C. by using a cryostat and stuck to a MAS coat slide and then in situ hybridization was performed. For a label of NPY mRNA and POMC mRNA probes, ^35S was used. The hypothalamic section was pretreated by using triethanolamine, ethanol and the like, and then 12 hour-hybridization was performed at 55° C. After the hybridization, the hypothalamic section was treated by washing with SSC, RNase, etc. After development to a film, the mRNA expression strength was assayed by using the NIH image.
(±)-baclofen was orally administered to DIO mice for 5 weeks according to the above method, and then the DIO mice were sacrificed. A brain was surgically removed, and changes in expression amounts of NPY mRNA and POMC mRNA in the hypothalamic arcuate nucleus were examined by using an in situ hybridization method.

Another test relates to UCP1 mRNA. Briefly: Real time PCR, UCP1 mRNA in brown adipose tissues, db/db mice. The settings on record: after 5 week-administration, 1.1 and 2.7 mg/dl in drinking water. How it is done:
5 week-old male C57BL/KsJ-db/db mice (db/db mice: body weight 19 to 25 g, Japan SLC, Inc.) were purchased and individually fed in tip cages. For the db/db mice, normal pellet diet (CE-2) was administered under free water intake and free food intake. A body weight and a food intake amount over 24 hours were measured every day from the start of feeding. On day 3 after the start of feeding, blood was taken from an orbit after 6 hour-fasting and a blood glucose level and a blood insulin concentration were measured. […] A food intake amount and a body weight were measured over time during the period of 5 week-administration of (±)-baclofen, blood was taken after the end of the 5-week administration, and the db/db mice were sacrificed by cervical luxation. […] The epididymal white adipose tissues and subcutaneous white adipose tissues were measured in weights, and then fixed in 4% formaldehyde and preserved at 4° C.
RNA was taken out from the brown adipose tissues preserved at −80° C., and expression of a UCP-1 mRNA was examined in the real time quantitative […] method by using ABI PRISM (registered trademark) 7700 Sequence Detection System.

The next test has as its system db/db mice. Put plainly: Histological study of adipose tissue (weights, fat cell size), db/db mice. The settings on record: after 5 week-administration, 1.1 and 2.7 mg/dl in drinking water. How it is done:
5 week-old male C57BL/KsJ-db/db mice (db/db mice: body weight 19 to 25 g, Japan SLC, Inc.) were purchased and individually fed in tip cages. For the db/db mice, normal pellet diet (CE-2) was administered under free water intake and free food intake. A body weight and a food intake amount over 24 hours were measured every day from the start of feeding. On day 3 after the start of feeding, blood was taken from an orbit after 6 hour-fasting and a blood glucose level and a blood insulin concentration were measured. The db/db mice were divided into three groups (10 mice per each group) so that a body weight, a 24 hour-food intake amount, a blood glucose level, and a blood insulin concentration were equal, and defined to be a control group, a low concentration baclofen treated group, and a high concentration baclofen treated group. After division into the groups, from day 5 after the start of feeding, (±)-baclofen was dissolved in drinking water and 5 week-continuous oral administration to the baclofen treated groups was started. (±)-baclofen was dissolved in drinking water at a concentration of 1.1 mg/dl in the low concentration treated group and at a concentration of 2.7 mg/dl in the high concentration treated group. A food intake amount and a body weight were measured over time during the period of 5 week-administration of (±)-baclofen, blood was taken after the end of the 5-week administration, and the db/db mice were sacrificed by cervical luxation. Brains, epididymal white adipose tissues, subcutaneous white adipose tissues and brown adipose tissues were surgically removed. The brains and brown adipose tissues were frozen in dry ice and liquid nitrogen immediately after the removal and then preserved at −80° C. The epididymal white adipose tissues and subcutaneous white adipose tissues were measured in weights, and then fixed in 4% formaldehyde and preserved at 4° C. […]

Setting [3] is: 6 hour-fasting after 5 weeks oral, (±)-baclofen 5, SKF97541 0.3, 3-APPA 5 mg/kg/day, vs control.
Where [4] appears, read: (±)-baclofen 5 mg/kg/day oral 5 weeks, 6 hour-fasting.

For the compound `NCC(CC(=O)O)c1ccc(Cl)cc1` (racemic) [(±)-baclofen, (RS)-4-amino-3-(4-chlorophenyl)butanoic acid], in the test on DIO mice [1] (setting [3]), the “fasting blood glucose level” value is on record as “significant decreases” and the “fasting blood insulin concentration” value is “significant decreases”. Further, in the test on DIO mice [1] (setting [4]), the plasma adiponectin concentration result is on record as “significantly increased” and the plasma leptin concentration result is listed as “significantly decreased”. The HbA1c value result in the test on DIO mice [1] (after 5 weeks oral, (±)-baclofen 5, SKF97541 0.3, 3-APPA 5 mg/kg/day, vs control) is listed as “significant decreases”. The oxygen consumption result in the test on DIO mice [2] ((±)-baclofen oral 5 weeks) is reported as “significantly increased”. In addition, the “body temperature (rectal)” value with DIO mice [2] ((±)-baclofen oral, 5 weeks after start of administration) is “significantly raised”. Moreover, the “expression of POMC mRNA in the hypothalamic arcuate nucleus” value in the test with POMC mRNA is listed as “significantly increased”. The “UCP1 mRNA expression in brown adipose tissues” value in the test on UCP1 mRNA was “Significant increases”. Also, in the test with db/db mice, the “size of a fat cell (epididymal white adipose tissue, H-E stain)” value is “decreases”; the “weight of epididymal white adipose tissues” value is “Significant decreases”; the “weight of subcutaneous white adipose tissue” value is listed as “no significant decrease”.

For the origin of these results see US20100197789A1, “ANTI-OBESITY AGENT AND USE THEREOF” (National University Corporation Nagoya University, priority 2006, published 2010).
